The source of these data is patent publication US6368632B1, “Microencapsulated 3-piperidinyl-substituted 1,2-benzisoxazoles and 1,2-benzisothiazoles” (Janssen Pharmaceutica, priority 1993, dated 2002).

Data set [1] in a line: Solubility in the real time in vitro dissolution receiving medium. As to conditions: 50 mM tris buffer, 37 °C, pH 7.4, aqueous buffer.
Data set [2] has as its target dopamine-D2 (Homo sapiens, UniProt P14416). Conditions: Janssen et al., J. Pharmacol. Exp. Ther. 244 (2):685-693 (1988); cited from earlier work.

Chain of dopamine-D2 (P14416 whole entry): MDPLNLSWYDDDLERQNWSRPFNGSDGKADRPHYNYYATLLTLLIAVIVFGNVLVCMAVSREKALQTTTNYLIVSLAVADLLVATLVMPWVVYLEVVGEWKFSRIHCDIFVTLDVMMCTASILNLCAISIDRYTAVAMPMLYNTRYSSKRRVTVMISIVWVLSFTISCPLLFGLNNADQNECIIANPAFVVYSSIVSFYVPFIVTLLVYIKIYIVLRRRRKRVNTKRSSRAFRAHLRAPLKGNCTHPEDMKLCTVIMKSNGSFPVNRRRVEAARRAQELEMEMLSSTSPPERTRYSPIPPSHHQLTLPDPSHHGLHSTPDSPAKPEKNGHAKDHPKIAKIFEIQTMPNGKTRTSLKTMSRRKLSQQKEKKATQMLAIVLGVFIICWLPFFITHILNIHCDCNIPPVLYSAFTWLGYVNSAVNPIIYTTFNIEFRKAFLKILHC

Take `Cc1nc2n(c(=O)c1CCN1CCC(c3noc4cc(F)ccc34)CC1)CCCC2` [Risperidone, 3-[2-[4-(6-fluoro-1,2-benzisoxazol-3-yl)-1-piperidinyl)ethyl]-6,7,8,9-tetrahydro-2-methyl-4H -pyrido[1,2-a]pyrimidin-4-one]: the solubility in data set [1] was ≥ 500 µg/mL. In addition, the “activity in tests related to dopamine-D2 antagonism” value in data set [2] is “showed activity in all tests related to dopamine-D2 antagonism”.
